Laboratory results reported in patent US10787452B2 (Vertex Pharmaceuticals Incorporated, priority 2012, dated 2020).

Test system: HCT116 colorectal cancer cells
Test: Cisplatin sensitization assay (96 h cell viability MTS);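 further: compound concentration needed to lower the Cisplatin-alone IC50 by a set fold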
Type: cell-based
Details: 96 h MTS, compound plus Cisplatin
How it was run: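 Simultaneous addition of compound and cisplatin (2-fold series, top 10 μM final, full matrix), followed by 96 h culture at 37° C/5% CO2 and a 1 h MTS viability read.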

| Compound | Cisplatin Sensitization Assay |
| --- | --- |
| CN1CCN(C(=O)[C@H]2CC[C@@H](Oc3ccncc3NC(=O)c3c(N)nn4cc(F)cnc34)CC2)CC1 [I-O-19] | +++ (Compounds with a Cisplatin sensitization value of <0.02 μM are marked with “+++.”) |
| CCC(C#N)c1cnc2c(C(=O)Nc3cnccc3OC)c(N)nn2c1 (centres unmarked) [I-O-20, 2-amino-6-(1-cyanopropyl)-N-(4-methoxypyridin-3-yl)pyrazolo[1,5-a]pyrimidine-3-carboxamide] | ++ (Compounds with a Cisplatin sensitization value >0.02 μM but <0.2 μM are marked with “++.”) |
| COc1ccncc1NC(=O)c1c(N)nn2cc(C(C)C#N)cnc12 (centres unmarked) [I-O-21, 2-amino-6-(1-cyanoethyl)-N-(4-methoxypyridin-3-yl)pyrazolo[1,5-a]pyrimidine-3-carboxamide] | ++ (Compounds with a Cisplatin sensitization value >0.02 μM but <0.2 μM are marked with “++.”) |
| CN1CCC(Oc2ccncc2NC(=O)c2c(N)nn3cc(CC#N)cnc23)CC1 [I-O-23, 2-amino-6-(cyanomethyl)-N-(4-((1-methylpiperidin-4-yl)oxy)pyridin-3-yl)pyrazolo[1,5-a]pyrimidine-3-carboxamide] | +++ (Compounds with a Cisplatin sensitization value of <0.02 μM are marked with “+++.”) |
| CN(C)CCOc1ccncc1NC(=O)c1c(N)nn2cc(CC#N)cnc12 [I-O-24, 2-amino-6-(cyanomethyl)-N-(4-(2-(dimethylamino)ethoxy)pyridin-3-yl)pyrazolo[1,5-a]pyrimidine-3-carboxamide] | ++ (Compounds with a Cisplatin sensitization value >0.02 μM but <0.2 μM are marked with “++.”) |
| N#CCc1cnc2c(C(=O)Nc3cnccc3Oc3ccccc3)c(N)nn2c1 [I-O-25, 2-amino-6-(cyanomethyl)-N-(4-phenoxypyridin-3-yl)pyrazolo[1,5-a]pyrimidine-3-carboxamide] | +++ (Compounds with a Cisplatin sensitization value of <0.02 μM are marked with “+++.”) |
| COc1ccncc1NC(=O)c1c(N)nn2cc(CC#N)cnc12 [I-O-26, 2-amino-6-(cyanomethyl)-N-(4-methoxypyridin-3-yl)pyrazolo[1,5-a]pyrimidine-3-carboxamide] | ++ (Compounds with a Cisplatin sensitization value >0.02 μM but <0.2 μM are marked with “++.”) |
| COc1cc(Cl)ncc1NC(=O)c1c(N)nn2cc(CC#N)cnc12 [I-O-27, 2-amino-N-(6-chloro-4-methoxypyridin-3-yl)-6-(cyanomethyl)pyrazolo[1,5-a]pyrimidine-3-carboxamide] | ++ (Compounds with a Cisplatin sensitization value >0.02 μM but <0.2 μM are marked with “++.”) |
| CCOc1ccncc1NC(=O)c1c(N)nn2cc(CC#N)cnc12 [I-O-28, 2-amino-6-(cyanomethyl)-N-(4-ethoxypyridin-3-yl)pyrazolo[1,5-a]pyrimidine-3-carboxamide] | +++ (Compounds with a Cisplatin sensitization value of <0.02 μM are marked with “+++.”) |
| COCCOc1ccncc1NC(=O)c1c(N)nn2cc(CC#N)cnc12 [I-O-29, 2-amino-6-(cyanomethyl)-N-(4-(2-methoxyethoxy)pyridin-3-yl)pyrazolo[1,5-a]pyrimidine-3-carboxamide] | +++ (Compounds with a Cisplatin sensitization value of <0.02 μM are marked with “+++.”) |
| N#CCc1cnc2c(C(=O)Nc3cnccc3OC3CCOCC3)c(N)nn2c1 [I-O-30, 2-amino-6-(cyanomethyl)-N-(4-((tetrahydro-2H-pyran-4-yl)oxy)pyridin-3-yl)pyrazolo[1,5-a]pyrimidine-3-carboxamide] | +++ (Compounds with a Cisplatin sensitization value of <0.02 μM are marked with “+++.”) |
| N#CCc1cnc2c(C(=O)Nc3cnccc3OCC3CC3)c(N)nn2c1 [I-O-32, 2-amino-6-(cyanomethyl)-N-(4-(cyclopropylmethoxy)pyridin-3-yl)pyrazolo[1,5-a]pyrimidine-3-carboxamide] | +++ (Compounds with a Cisplatin sensitization value of <0.02 μM are marked with “+++.”) |
| N#CCc1cnc2c(C(=O)Nc3cnccc3OCCO)c(N)nn2c1 [I-O-33, 2-amino-6-(cyanomethyl)-N-(4-(2-hydroxyethoxy)pyridin-3-yl)pyrazolo[1,5-a]pyrimidine-3-carboxamide] | ++ (Compounds with a Cisplatin sensitization value >0.02 μM but <0.2 μM are marked with “++.”) |
| N#CCc1cnc2c(C(=O)Nc3cnccc3OCC(F)(F)F)c(N)nn2c1 [I-O-34, 2-amino-6-(cyanomethyl)-N-(4-(2,2,2-trifluoroethoxy)pyridin-3-yl)pyrazolo[1,5-a]pyrimidine-3-carboxamide] | ++ (Compounds with a Cisplatin sensitization value >0.02 μM but <0.2 μM are marked with “++.”) |
| CC(C)Oc1ccncc1NC(=O)c1c(N)nn2cc(CC#N)cnc12 [I-O-35, 2-amino-6-(cyanomethyl)-N-(4-isopropoxypyridin-3-yl)pyrazolo[1,5-a]pyrimidine-3-carboxamide] | +++ (Compounds with a Cisplatin sensitization value of <0.02 μM are marked with “+++.”) |
| N#CCc1cnc2c(C(=O)Nc3cnccc3OC3CCC3)c(N)nn2c1 [I-O-36, 2-amino-6-(cyanomethyl)-N-(4-cyclobutoxypyridin-3-yl)pyrazolo[1,5-a]pyrimidine-3-carboxamide] | +++ (Compounds with a Cisplatin sensitization value of <0.02 μM are marked with “+++.”) |
| N#CCc1cnc2c(C(=O)Nc3cnccc3OC3COC3)c(N)nn2c1 [I-O-38, 2-amino-6-(cyanomethyl)-N-(4-(oxetan-3-yloxy)pyridin-3-yl)pyrazolo[1,5-a]pyrimidine-3-carboxamide] | +++ (Compounds with a Cisplatin sensitization value of <0.02 μM are marked with “+++.”) |
| N#CCc1cnc2c(C(=O)Nc3cnccc3OC3CCCCC3)c(N)nn2c1 [I-O-39, 2-amino-6-(cyanomethyl)-N-(4-(cyclohexyloxy)pyridin-3-yl)pyrazolo[1,5-a]pyrimidine-3-carboxamide] | +++ (Compounds with a Cisplatin sensitization value of <0.02 μM are marked with “+++.”) |
| N#CCc1cnc2c(C(=O)Nc3cnccc3OCCCO)c(N)nn2c1 [I-O-40, 2-amino-6-(cyanomethyl)-N-(4-(3-hydroxypropoxy)pyridin-3-yl)pyrazolo[1,5-a]pyrimidine-3-carboxamide] | ++ (Compounds with a Cisplatin sensitization value >0.02 μM but <0.2 μM are marked with “++.”) |
| N#CCc1cnc2c(C(=O)Nc3cnccc3OC3CCCOC3)c(N)nn2c1 (centres unmarked) [I-O-41, 2-amino-6-(cyanomethyl)-N-(4-((tetrahydro-2H-pyran-3-yl)oxy)pyridin-3-yl)pyrazolo[1,5-a]pyrimidine-3-carboxamide] | +++ (Compounds with a Cisplatin sensitization value of <0.02 μM are marked with “+++.”) |
| N#CCc1cnc2c(C(=O)Nc3cnccc3O[C@H]3CCOC3)c(N)nn2c1 [I-O-42, (S)-2-amino-6-(cyanomethyl)-N-(4-((tetrahydrofuran-3-yl)oxy)pyridin-3-yl)pyrazolo[1,5-a]pyrimidine-3-carboxamide] | +++ (Compounds with a Cisplatin sensitization value of <0.02 μM are marked with “+++.”) |
| N#CCc1cnc2c(C(=O)Nc3cnccc3OC3CCCC3)c(N)nn2c1 [I-O-43, 2-amino-6-(cyanomethyl)-N-(4-(cyclopentyloxy)pyridin-3-yl)pyrazolo[1,5-a]pyrimidine-3-carboxamide] | +++ (Compounds with a Cisplatin sensitization value of <0.02 μM are marked with “+++.”) |
| Nc1nn2cc(F)cnc2c1C(=O)Nc1cnccc1OC1CC[S+]([O-])CC1 (centres unmarked) [I-O-44, 2-amino-6-fluoro-N-(4-((1-oxidotetrahydro-2H-thiopyran-4-yl)oxy)pyridin-3-yl)pyrazolo[1,5-a]pyrimidine-3-carboxamide] | ++ (Compounds with a Cisplatin sensitization value >0.02 μM but <0.2 μM are marked with “++.”) |
| Nc1nn2cc(F)cnc2c1C(=O)Nc1cnccc1OC1CCS(=O)(=O)CC1 [I-O-45, 2-amino-N-(4-((1,1-dioxidotetrahydro-2H-thiopyran-4-yl)oxy)pyridin-3-yl)-6-fluoropyrazolo[1,5-a]pyrimidine-3-carboxamide] | +++ (Compounds with a Cisplatin sensitization value of <0.02 μM are marked with “+++.”) |
| CN1CCC(Oc2c(Cl)cncc2NC(=O)c2c(N)nn3cc(Cl)cnc23)CC1 [I-O-46, 2-amino-6-chloro-N-(5-chloro-4-((1-methylpiperidin-4-yl)oxy)pyridin-3-yl)pyrazolo[1,5-a]pyrimidine-3-carboxamide] | + (Compounds with a Cisplatin sensitization value >0.2 μM but <5 μM are marked with “+.”) |
| CN(C)CCOCCOc1ccncc1NC(=O)c1c(N)nn2cc(Cl)cnc12 [I-O-47, 2-amino-6-chloro-N-(4-(2-(2-(dimethylamino)ethoxy)ethoxy)pyridin-3-yl)pyrazolo[1,5-a]pyrimidine-3-carboxamide] | + (Compounds with a Cisplatin sensitization value >0.2 μM but <5 μM are marked with “+.”) |
| CN(C)CCOc1ccncc1NC(=O)c1c(N)nn2cc(Cl)cnc12 [I-O-48, 2-amino-6-chloro-N-(4-(2-(dimethylamino)ethoxy)pyridin-3-yl)pyrazolo[1,5-a]pyrimidine-3-carboxamide] | ++ (Compounds with a Cisplatin sensitization value >0.02 μM but <0.2 μM are marked with “++.”) |
| CN1CCC[C@@H]1COc1ccncc1NC(=O)c1c(N)nn2cc(Cl)cnc12 [I-O-49, (R)-2-amino-6-chloro-N-(4-((1-methylpyrrolidin-2-yl)methoxy)pyridin-3-yl)pyrazolo[1,5-a]pyrimidine-3-carboxamide] | + (Compounds with a Cisplatin sensitization value >0.2 μM but <5 μM are marked with “+.”) |
| CN1CCC[C@H]1COc1ccncc1NC(=O)c1c(N)nn2cc(Cl)cnc12 [I-O-50, (S)-2-amino-6-chloro-N-(4-((1-methylpyrrolidin-2-yl)methoxy)pyridin-3-yl)pyrazolo[1,5-a]pyrimidine-3-carboxamide] | + (Compounds with a Cisplatin sensitization value >0.2 μM but <5 μM are marked with “+.”) |
